Test results as given in patent US7074789B2, “Kinase inhibitors” (Amgen Inc., priority 1999, dated 2006).
pIC50: −log10 of the molar value.

Tests used:
Assay type in all cases: biochemical
[1] = biological target: T1, Lyn (Homo sapiens, UniProt P07948); assay: Kinase inhibition assay (33P transfer), Lyn; conditions: Table 6, Lyn-1 kinase inhibition class
T1 construct: Kinases are expressed as either kinase domains or full length constructs; made in house
Summary of the method: (§1)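 Recombinant kinase domains or full-length GST- or His-tagged constructs, from E. coli or baculovirus/High Five cells, sometimes with regulatory polypeptides. Transfer of 33P from ATP to plate-bound poly(Glu,Tyr) 4:1 or poly(Arg,Ser) 3:1 counted by liquid scintillation after phosphoric acid wash; IC50 is the concentration halving incorporation.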

[2] = biological target: T2, Src (Homo sapiens, UniProt P12931); assay: Kinase inhibition assay (33P transfer), Src; conditions: Table 6, Src-1 kinase inhibition class
T2 construct: Kinases are expressed as either kinase domains or full length constructs; made in house
Summary of the method: as §1

[3] = biological target: T3, Zap-70 (Homo sapiens, UniProt P43403); assay: Kinase inhibition assay (33P transfer), Zap-70; conditions: Table 3; read-out: Zap-1
T3 construct: Kinases are expressed as either kinase domains or full length constructs; made in house
T3 sequence (P43403 1-619): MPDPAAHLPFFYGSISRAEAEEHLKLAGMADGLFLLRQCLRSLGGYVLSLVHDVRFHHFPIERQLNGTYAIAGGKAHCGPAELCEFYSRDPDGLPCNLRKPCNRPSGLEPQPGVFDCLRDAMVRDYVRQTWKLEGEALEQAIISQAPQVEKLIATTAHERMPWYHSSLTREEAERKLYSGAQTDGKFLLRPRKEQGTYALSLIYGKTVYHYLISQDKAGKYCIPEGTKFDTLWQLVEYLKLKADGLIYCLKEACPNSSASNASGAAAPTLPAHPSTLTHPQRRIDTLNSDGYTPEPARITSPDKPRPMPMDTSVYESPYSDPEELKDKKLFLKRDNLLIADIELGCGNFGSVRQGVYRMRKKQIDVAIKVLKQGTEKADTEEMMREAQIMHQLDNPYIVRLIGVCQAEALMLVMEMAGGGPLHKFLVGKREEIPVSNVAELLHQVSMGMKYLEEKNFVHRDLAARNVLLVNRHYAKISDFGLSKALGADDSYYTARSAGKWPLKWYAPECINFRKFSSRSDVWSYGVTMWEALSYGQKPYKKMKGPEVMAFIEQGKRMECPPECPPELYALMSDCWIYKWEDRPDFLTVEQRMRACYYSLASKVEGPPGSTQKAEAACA
Summary of the method: (§2)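 Filterless plate radiometric format: immobilized poly(Glu,Tyr) 4:1 or poly(Arg,Ser) 3:1, 33P-labelled ATP, tagged recombinant kinase (some with regulatory partners). Incorporated label counted after phosphoric acid wash.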

[4] = biological target: T4, Kdr (Homo sapiens, UniProt P35968); assay: Kinase inhibition assay (33P transfer), Kdr; conditions: Table 3; read-out: KDR-1
T4 construct: Kinases are expressed as either kinase domains or full length constructs; made in house
T4 sequence (P35968 20-1356, species assumed): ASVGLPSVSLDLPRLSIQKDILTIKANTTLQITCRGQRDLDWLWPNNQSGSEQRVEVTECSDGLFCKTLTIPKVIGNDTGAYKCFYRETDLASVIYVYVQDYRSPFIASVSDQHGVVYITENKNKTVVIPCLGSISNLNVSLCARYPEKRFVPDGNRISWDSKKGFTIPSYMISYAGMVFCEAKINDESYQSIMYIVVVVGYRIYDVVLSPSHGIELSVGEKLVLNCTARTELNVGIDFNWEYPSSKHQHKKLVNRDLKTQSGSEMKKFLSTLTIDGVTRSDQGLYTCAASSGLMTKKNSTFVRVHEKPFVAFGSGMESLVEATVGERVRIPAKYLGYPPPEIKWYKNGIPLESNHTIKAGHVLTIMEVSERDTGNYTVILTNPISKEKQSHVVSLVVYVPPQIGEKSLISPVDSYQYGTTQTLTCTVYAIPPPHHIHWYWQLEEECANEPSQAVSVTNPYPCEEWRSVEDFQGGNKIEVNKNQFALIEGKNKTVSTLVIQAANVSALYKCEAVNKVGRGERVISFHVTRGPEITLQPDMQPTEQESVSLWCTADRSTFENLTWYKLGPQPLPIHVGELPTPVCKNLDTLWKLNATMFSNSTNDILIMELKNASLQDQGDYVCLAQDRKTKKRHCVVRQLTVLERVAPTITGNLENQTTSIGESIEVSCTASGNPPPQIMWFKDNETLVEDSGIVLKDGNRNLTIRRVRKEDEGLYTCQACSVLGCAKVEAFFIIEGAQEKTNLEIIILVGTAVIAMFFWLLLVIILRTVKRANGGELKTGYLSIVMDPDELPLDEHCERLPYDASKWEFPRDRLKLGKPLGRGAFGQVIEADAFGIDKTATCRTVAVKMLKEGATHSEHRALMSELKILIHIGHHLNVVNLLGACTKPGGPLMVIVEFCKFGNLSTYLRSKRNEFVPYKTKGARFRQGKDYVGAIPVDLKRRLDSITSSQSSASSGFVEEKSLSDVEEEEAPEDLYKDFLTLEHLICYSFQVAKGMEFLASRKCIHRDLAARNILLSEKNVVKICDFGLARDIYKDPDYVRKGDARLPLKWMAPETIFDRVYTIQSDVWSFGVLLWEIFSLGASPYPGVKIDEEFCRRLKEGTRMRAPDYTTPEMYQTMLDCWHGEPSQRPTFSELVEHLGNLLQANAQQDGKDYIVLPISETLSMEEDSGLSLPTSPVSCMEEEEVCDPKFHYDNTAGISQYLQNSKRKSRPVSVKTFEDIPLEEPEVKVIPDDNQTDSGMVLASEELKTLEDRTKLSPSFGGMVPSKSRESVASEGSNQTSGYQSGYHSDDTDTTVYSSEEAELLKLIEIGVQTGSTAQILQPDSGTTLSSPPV
Summary of the method: as §2

[5] = biological target: T5, Flt-1 (Homo sapiens, UniProt P17948); assay: Kinase inhibition assay (33P transfer), Flt-1
T5 construct: Kinases are expressed as either kinase domains or full length constructs; made in house
T5 sequence (P17948 27-1338, species assumed): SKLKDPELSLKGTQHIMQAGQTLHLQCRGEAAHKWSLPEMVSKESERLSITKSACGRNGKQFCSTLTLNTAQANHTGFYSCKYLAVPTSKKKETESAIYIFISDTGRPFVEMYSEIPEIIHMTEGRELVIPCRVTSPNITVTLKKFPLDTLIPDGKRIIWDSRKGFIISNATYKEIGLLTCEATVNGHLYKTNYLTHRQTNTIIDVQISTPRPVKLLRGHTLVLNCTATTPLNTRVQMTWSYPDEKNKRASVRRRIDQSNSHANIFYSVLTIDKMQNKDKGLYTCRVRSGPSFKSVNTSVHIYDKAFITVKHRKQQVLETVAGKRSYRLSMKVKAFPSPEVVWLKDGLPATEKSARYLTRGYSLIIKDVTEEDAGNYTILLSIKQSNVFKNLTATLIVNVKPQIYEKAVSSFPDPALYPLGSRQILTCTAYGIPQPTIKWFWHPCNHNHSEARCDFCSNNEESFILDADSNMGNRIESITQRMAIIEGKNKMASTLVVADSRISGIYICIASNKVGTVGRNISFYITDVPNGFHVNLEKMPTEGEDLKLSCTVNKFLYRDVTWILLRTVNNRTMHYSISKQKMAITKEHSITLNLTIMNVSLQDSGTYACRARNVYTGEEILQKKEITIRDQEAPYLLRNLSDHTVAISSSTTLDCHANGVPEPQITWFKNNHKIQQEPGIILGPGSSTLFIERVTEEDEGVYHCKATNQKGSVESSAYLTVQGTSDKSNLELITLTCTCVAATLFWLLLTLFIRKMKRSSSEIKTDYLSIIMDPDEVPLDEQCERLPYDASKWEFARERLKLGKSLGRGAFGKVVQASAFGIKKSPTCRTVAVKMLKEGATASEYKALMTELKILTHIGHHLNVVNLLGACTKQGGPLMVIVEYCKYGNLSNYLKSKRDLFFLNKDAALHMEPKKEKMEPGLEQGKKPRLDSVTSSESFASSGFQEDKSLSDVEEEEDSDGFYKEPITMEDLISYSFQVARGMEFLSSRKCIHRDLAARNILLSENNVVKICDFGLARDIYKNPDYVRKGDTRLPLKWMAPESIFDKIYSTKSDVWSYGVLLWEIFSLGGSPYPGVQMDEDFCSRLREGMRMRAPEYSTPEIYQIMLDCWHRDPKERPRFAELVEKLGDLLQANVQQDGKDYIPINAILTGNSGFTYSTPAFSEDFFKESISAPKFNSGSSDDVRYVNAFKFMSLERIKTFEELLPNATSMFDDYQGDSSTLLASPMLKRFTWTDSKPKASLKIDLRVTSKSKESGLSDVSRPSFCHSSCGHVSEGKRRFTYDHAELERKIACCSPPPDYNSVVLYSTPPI
Summary of the method: as §1

[6] = biological target: T6, EPHB4 (Homo sapiens, UniProt P54760); assay: Kinase inhibition assay (33P transfer), EPHB4; conditions: read-out: EPHB4-1
T6 construct: Kinases are expressed as either kinase domains or full length constructs; made in house
T6 sequence (P54760 16-987): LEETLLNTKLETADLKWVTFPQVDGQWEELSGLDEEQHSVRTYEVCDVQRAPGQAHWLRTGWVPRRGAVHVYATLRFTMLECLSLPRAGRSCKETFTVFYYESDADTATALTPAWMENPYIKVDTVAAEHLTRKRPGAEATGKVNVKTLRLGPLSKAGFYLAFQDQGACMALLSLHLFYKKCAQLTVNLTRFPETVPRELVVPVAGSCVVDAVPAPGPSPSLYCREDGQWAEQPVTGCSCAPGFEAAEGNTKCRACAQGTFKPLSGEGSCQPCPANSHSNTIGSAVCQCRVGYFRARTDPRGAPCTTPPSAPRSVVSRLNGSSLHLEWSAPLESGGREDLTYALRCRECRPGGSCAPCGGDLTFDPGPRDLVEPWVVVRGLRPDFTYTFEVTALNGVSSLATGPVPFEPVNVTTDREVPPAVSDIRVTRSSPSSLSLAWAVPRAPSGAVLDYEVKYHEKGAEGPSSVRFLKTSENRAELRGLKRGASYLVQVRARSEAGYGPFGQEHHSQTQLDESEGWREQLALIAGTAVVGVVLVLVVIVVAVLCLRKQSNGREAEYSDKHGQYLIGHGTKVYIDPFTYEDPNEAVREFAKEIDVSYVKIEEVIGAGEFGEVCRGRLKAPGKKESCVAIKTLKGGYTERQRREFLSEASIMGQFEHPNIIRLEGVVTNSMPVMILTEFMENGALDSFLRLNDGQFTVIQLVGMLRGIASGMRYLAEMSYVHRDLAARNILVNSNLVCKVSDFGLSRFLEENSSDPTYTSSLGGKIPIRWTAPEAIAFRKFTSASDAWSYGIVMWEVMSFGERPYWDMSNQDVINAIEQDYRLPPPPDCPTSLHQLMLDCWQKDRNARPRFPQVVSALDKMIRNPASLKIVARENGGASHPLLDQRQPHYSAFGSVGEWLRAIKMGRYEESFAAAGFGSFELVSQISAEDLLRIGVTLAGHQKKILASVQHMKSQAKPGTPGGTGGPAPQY

[7] = biological target: T7, Hck-1 (Homo sapiens, UniProt P08631); assay: Kinase inhibition assay (33P transfer), Hck; conditions: Table 6, Hck-1 kinase inhibition class
T7 construct: Kinases are expressed as either kinase domains or full length constructs; made in house
T7 sequence (P08631 whole entry, the tested form may be a part): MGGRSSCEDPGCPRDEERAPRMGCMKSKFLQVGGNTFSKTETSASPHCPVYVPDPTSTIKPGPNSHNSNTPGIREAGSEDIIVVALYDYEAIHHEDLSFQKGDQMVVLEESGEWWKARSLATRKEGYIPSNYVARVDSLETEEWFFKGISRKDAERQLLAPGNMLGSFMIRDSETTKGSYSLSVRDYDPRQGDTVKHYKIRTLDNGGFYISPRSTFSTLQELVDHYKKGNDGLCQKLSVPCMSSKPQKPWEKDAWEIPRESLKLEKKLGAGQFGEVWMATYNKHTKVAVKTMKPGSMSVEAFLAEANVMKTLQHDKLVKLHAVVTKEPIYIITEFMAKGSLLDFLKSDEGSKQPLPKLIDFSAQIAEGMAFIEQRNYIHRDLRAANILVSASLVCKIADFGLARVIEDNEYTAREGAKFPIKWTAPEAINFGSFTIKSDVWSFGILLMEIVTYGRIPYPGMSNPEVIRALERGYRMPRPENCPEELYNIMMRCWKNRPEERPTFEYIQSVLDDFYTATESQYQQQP

[8] = biological target: T8, ErbB4 (Homo sapiens, UniProt Q15303); assay: Kinase inhibition assay (33P transfer), ErbB4; conditions: read-out: ErbB4-1
T8 construct: Kinases are expressed as either kinase domains or full length constructs; made in house
T8 sequence (Q15303 26-1308, species assumed): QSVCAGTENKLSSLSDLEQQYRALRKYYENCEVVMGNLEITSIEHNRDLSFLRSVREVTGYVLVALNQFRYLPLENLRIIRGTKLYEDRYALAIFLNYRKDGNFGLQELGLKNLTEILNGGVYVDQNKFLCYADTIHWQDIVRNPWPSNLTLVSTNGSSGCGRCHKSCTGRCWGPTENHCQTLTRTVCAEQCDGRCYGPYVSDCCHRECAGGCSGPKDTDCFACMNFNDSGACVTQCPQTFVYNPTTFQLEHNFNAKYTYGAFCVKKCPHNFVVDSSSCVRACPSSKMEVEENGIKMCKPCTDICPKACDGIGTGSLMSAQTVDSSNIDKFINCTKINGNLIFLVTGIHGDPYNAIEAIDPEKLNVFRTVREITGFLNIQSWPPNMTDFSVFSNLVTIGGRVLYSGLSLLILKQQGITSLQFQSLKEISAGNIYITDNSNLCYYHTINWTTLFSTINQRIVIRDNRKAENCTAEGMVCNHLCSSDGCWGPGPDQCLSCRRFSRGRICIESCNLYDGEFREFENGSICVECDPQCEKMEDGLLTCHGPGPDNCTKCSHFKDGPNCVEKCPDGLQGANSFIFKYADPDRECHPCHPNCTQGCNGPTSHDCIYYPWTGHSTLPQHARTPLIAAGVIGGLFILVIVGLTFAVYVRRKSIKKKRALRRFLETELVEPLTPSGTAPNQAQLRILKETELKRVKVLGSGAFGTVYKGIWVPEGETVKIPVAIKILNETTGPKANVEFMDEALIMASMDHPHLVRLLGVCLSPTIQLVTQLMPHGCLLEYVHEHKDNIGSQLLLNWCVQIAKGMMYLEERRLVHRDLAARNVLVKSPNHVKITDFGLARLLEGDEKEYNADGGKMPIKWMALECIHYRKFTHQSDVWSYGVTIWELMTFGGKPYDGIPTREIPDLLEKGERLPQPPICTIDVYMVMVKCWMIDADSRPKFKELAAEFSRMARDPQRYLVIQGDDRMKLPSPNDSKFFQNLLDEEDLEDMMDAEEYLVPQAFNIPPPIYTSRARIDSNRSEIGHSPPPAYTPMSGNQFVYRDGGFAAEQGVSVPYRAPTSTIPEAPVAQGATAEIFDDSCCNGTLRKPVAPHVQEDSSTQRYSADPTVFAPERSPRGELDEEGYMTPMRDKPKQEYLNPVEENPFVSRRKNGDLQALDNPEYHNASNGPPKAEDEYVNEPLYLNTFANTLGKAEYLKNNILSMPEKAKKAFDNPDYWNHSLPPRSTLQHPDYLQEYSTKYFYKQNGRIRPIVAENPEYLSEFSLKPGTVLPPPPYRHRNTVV

T1 sequence (P07948 whole entry, species assumed, the tested form may be a part): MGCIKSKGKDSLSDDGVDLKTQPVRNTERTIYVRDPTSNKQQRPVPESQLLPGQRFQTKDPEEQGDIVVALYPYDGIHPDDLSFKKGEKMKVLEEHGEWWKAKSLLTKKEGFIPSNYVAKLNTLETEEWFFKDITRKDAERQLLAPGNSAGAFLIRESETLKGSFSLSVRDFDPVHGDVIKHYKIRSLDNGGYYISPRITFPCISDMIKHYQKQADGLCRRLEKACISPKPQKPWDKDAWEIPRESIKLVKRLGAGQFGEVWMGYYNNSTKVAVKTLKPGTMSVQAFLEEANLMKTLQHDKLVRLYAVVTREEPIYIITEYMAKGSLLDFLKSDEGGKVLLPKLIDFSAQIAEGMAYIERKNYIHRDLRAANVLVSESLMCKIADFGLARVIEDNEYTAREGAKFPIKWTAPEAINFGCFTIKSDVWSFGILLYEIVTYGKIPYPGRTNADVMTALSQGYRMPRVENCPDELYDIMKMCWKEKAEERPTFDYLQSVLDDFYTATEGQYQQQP

Structure (SMILES) | pIC50 [1] | pIC50 [2] | pIC50 [3] | pIC50 [4] | pIC50 [5] | pIC50 [6] | pIC50 [7] | pIC50 [8]
NC(=O)c1ccc(Nc2ncnc(Nc3cc(-c4ccco4)n[nH]3)n2)cc1 [Compound 341] | < 4.91 | < 4.91 | < 4.91 | > 5.96 | > 5.96 | 5.18 to 5.96 | < 4.91 | < 4.91
COc1cc(Nc2ncnc(Nc3ccc4[nH]ccc4c3)n2)cc(OC)c1OC [Compound 928] | > 5.99 | > 5.99 | < 4.94 | > 5.99 | > 5.99 | > 5.99 | < 4.94 | 5.21 to 5.99
COc1cc(Nc2ncnc(Nc3ccc4[nH]ncc4c3)n2)cc(OC)c1OC [Compound 79] | > 5.99 | > 5.99 | < 4.94 | > 5.99 | 5.21 to 5.99 | > 5.99 | < 4.94 | 5.21 to 5.99
COc1cc(Nc2ncnc(-n3c(Nc4ccc(C(C)C)cc4)nc4ccccc43)n2)cc(OC)c1OC [Compound 388] | 5.33 to 6.11 | < 5.06 | < 5.06 | 5.33 to 6.11 | < 5.06 | < 5.06 | < 5.06 | < 5.06
NC(=O)c1ccc(Nc2ncnc(-n3c(N)nc4ccccc43)n2)cc1 [Compound 396] | 5.16 to 5.94 | < 4.89 | < 4.89 | > 5.94 | > 5.94 | 5.16 to 5.94 | 5.00 to 5.16 | 5.16 to 5.94
COc1cc(Nc2ncnc(Nc3ccc4cn[nH]c4c3)n2)cc(OC)c1OC [Compound 70] | 5.21 to 5.99 | > 5.99 | < 4.94 | > 5.99 | > 5.99 | 5.21 to 5.99 | < 4.94 | 5.21 to 5.99
COc1cc(Nc2ncnc(Nc3ccc(Oc4ccccc4)cc3)n2)cc(OC)c1OC [Compound 29] | > 6.05 | > 6.05 | < 5.00 | > 6.05 | > 6.05 | < 5.00 | < 5.00 | 5.27 to 6.05
COc1cc(Nc2ncnc(NC(=O)Nc3ccccc3)n2)cc(OC)c1OC [Compound 852] | < 4.94 | < 4.94 | 4.94 to 5.05 | 5.05 to 5.22 | < 4.94 | < 4.94 | < 4.94 | < 4.94
COc1cc(Nc2ncnc(Nc3ccc(O)cc3)n2)cc(OC)c1OC [Compound 85] | > 5.97 | > 5.97 | < 4.91 | > 5.97 | > 5.97 | 5.19 to 5.97 | < 4.91 | 5.19 to 5.97
COc1cc(Nc2ncnc(-n3c(Nc4cccc(C(N)=O)c4)nc4ccccc43)n2)cc(OC)c1OC [Compound 377] | < 5.06 | < 5.06 | 5.33 to 6.11 | 5.33 to 6.11 | > 6.11 | 5.33 to 6.11 | < 5.06 | < 5.06
COc1cc(Nc2ncnc(-n3c(Nc4ccccc4C)nc4ccccc43)n2)cc(OC)c1OC [Compound 384] | > 6.08 | < 5.03 | < 5.03 | > 6.08 | < 5.03 | 5.30 to 6.08 | < 5.03 | < 5.03
COc1cc(Nc2ncnc(Nc3cccc4ccccc34)n2)cc(OC)c1OC [Compound 98] | 5.23 to 6.00 | < 4.95 | < 4.95 | > 6.00 | < 4.95 | < 4.95 | < 4.95 | < 4.95
COc1cc(Nc2ncnc(N(c3ccc(Cl)cc3)c3nc4ccccc4[nH]3)n2)cc(OC)c1OC [Compound 374] | > 6.10 | > 6.10 | < 5.05 | > 6.10 | 5.32 to 6.10 | > 6.10 | 5.05 to 5.16 | 5.32 to 6.10
COc1cc(Nc2ncnc(Nc3cc(-c4ccccc4)n[nH]3)n2)cc(OC)c1OC [Compound 102] | > 6.02 | > 6.02 | < 4.97 | > 6.02 | > 6.02 | > 6.02 | 5.08 to 5.24 | > 6.02
COc1cc(Nc2ncnc(Nc3cc(-c4ccc(Cl)cc4)n[nH]3)n2)cc(OC)c1OC [Compound 367] | 5.28 to 6.05 | 5.28 to 6.05 | < 5.00 | > 6.05 | 5.28 to 6.05 | 5.28 to 6.05 | < 5.00 | < 5.00
COc1cc(Nc2ncnc(-c3c(O)[nH]c4ccccc34)n2)cc(OC)c1OC [Compound 380] | 5.21 to 5.99 | < 4.94 | < 4.94 | > 5.99 | > 5.99 | < 4.94 | < 4.94 | 5.21 to 5.99
COc1cc(Nc2ncnc(Nc3cc(-c4ccccc4)nn3C)n2)cc(OC)c1OC [Compound 394] | > 6.03 | 5.26 to 6.03 | < 4.98 | > 6.03 | > 6.03 | 5.09 to 5.26 | < 4.98 | < 4.98
COc1cc(Nc2ncnc(Nc3cccc4cccnc34)n2)cc(OC)c1OC [Compound 97] | 5.23 to 6.00 | < 4.95 | < 4.95 | > 6.00 | 5.06 to 5.23 | < 4.95 | < 4.95 | < 4.95
COc1cc(Nc2ncnc(Nc3cc(C)c(O)cc3C)n2)cc(OC)c1OC [Compound 94] | > 6.00 | 5.22 to 6.00 | < 4.95 | > 6.00 | 4.95 to 5.06 | 5.22 to 6.00 | < 4.95 | 5.22 to 6.00
COc1cc(Nc2ncnc(-n3c(Nc4ccc(F)cc4)nc4ccccc43)n2)cc(OC)c1OC [Compound 387] | 5.31 to 6.09 | < 5.03 | < 5.03 | > 6.09 | > 6.09 | < 5.03 | < 5.03 | < 5.03
COc1cc(Nc2ncnc(Nc3ccc(C)c(O)c3)n2)cc(OC)c1OC [Compound 83] | > 5.98 | > 5.98 | < 4.93 | > 5.98 | > 5.98 | 5.20 to 5.98 | 5.20 to 5.98 | 5.20 to 5.98
COc1cc(Nc2ncnc(-n3c(NCc4ccccc4)nc4ccccc43)n2)cc(OC)c1OC [Compound 371] | > 6.08 | 5.30 to 6.08 | < 5.03 | > 6.08 | > 6.08 | > 6.08 | < 5.03 | < 5.03
